Values quoted from earlier work, collected in patent US6441047B2, “Combination therapy for treating glaucoma” (Alcon Manufacturing Ltd.., priority 1995, dated 2002).

Tests used:
[1] = Drugs of the Future, 1994, 19, 905-909
[2] = Drugs of the Future, 1994, 19, 905-909; remark: listed apart in the source
[3] = Drugs of the Future, 1994, 19, 905-909; remark: listed apart in the source

oral bioavailability [1]: orally bioavailable
SMILES: OC(CN1CCC(Cc2ccc(F)cc2)CC1)c1ccc(Cl)cc1 (stereo not drawn) [eliprodil]
incidence of adverse effects upon administration [2]: low incidence of adverse effects
blood-brain barrier penetration [3]: effectively crosses the blood-brain barrier
